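96-well plates; 48 h exposure; 5 concentrations. Endpoints by linear interpolation between flanking doses. Not reached: highest tested concentration assigned. At the GI50, growth is halved.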 Calls of active or inactive are those of the source. Rule as the data show it: active = GI50 up to about 1.1 µM and inactive = higher.
Columns and labels:
Test in all cases: DTP human tumour cell line panel, 48 h
HL-60 = test system: HL-60
SF-268 = test system: SF-268
IGROV-1 = test system: IGROV-1
UO-31 = test system: UO-31
SF-539 = test system: SF-539
CAKI-1 = test system: CAKI-1
786-0 = test system: 786-0
NCI/ADR-RES = test system: NCI/ADR-RES
UACC-62 = test system: UACC-62
SNB-75 = test system: SNB-75
COLO 205 = test system: COLO 205
Hs-578T = test system: Hs-578T
KM12 = test system: KM12
M14 = test system: M14
SF-295 = test system: SF-295
UACC-257 = test system: UACC-257
DU-145 = test system: DU-145
HT-29 = test system: HT-29
U-251 = test system: U-251

SMILES	GI50 (HL-60)	GI50 (SF-268)	GI50 (IGROV-1)	GI50 (UO-31)	GI50 (SF-539)	GI50 (CAKI-1)	GI50 (786-0)	GI50 (NCI/ADR-RES)	GI50 (UACC-62)	GI50 (SNB-75)	GI50 (COLO 205)	GI50 (Hs-578T)	GI50 (KM12)	GI50 (M14)	GI50 (SF-295)	GI50 (UACC-257)	GI50 (DU-145)	GI50 (HT-29)	GI50 (U-251)
Cn1c2ccccc2c(=NNc2cccc(C(=O)O)c2)c2ccccc21	11.3 µM (inactive)	10.9 µM (inactive)	17.8 µM (inactive)	14.3 µM (inactive)	19.2 µM (inactive)	25.1 µM (inactive)	9.79 µM (inactive)	24.3 µM (inactive)	16.9 µM (inactive)	23.9 µM (inactive)	12.2 µM (inactive)	17.8 µM (inactive)	23.3 µM (inactive)	19.6 µM (inactive)	16 µM (inactive)	28.5 µM (inactive)	11.9 µM (inactive)	3.1 µM (inactive)	4.69 µM (inactive)
O=c1[nH]nc(Cc2ccc(Cl)cc2)n1/N=C/c1c[nH]c2ccccc12	> 100 µM (inactive)	> 100 µM (inactive)	> 100 µM (inactive)	> 100 µM (inactive)	> 100 µM (inactive)	> 100 µM (inactive)	> 100 µM (inactive)	82.8 µM (inactive)	> 100 µM (inactive)	> 100 µM (inactive)	–	> 100 µM (inactive)	> 100 µM (inactive)	> 100 µM (inactive)	> 100 µM (inactive)	> 100 µM (inactive)	> 100 µM (inactive)	> 100 µM (inactive)	> 100 µM (inactive)
CC(=O)O[C@H](C[C@@H](C)[C@H]1C(=O)[C@H](O)[C@@]2(C)C3CC[C@H]4C(C)(C)[C@@H](OC5OCC(O)C(O)C5O)CC[C@@]45C[C@@]35CC[C@]12C)[C@@H]1OC1(C)C (some centres undefined)	2.21 µM (inactive)	20.7 µM (inactive)	16.2 µM (inactive)	22.9 µM (inactive)	16.3 µM (inactive)	16.8 µM (inactive)	16.6 µM (inactive)	47.3 µM (inactive)	14.1 µM (inactive)	12.1 µM (inactive)	22 µM (inactive)	38 µM (inactive)	22.2 µM (inactive)	31.1 µM (inactive)	16.3 µM (inactive)	18.6 µM (inactive)	19 µM (inactive)	29.4 µM (inactive)	16.3 µM (inactive)
CCC(CC)(CO)CNc1cc(Cl)nc(N)n1	> 100 µM (inactive)	55.6 µM (inactive)	> 100 µM (inactive)	> 100 µM (inactive)	> 100 µM (inactive)	> 100 µM (inactive)	> 100 µM (inactive)	> 100 µM (inactive)	> 100 µM (inactive)	> 100 µM (inactive)	> 100 µM (inactive)	> 100 µM (inactive)	> 100 µM (inactive)	–	> 100 µM (inactive)	> 100 µM (inactive)	> 100 µM (inactive)	> 100 µM (inactive)	> 100 µM (inactive)
CCCC(=O)Nc1cn(COC)c(C(=O)N2C[C@H]3C[C@@]34C2=CC(=O)c2[nH]cc(C)c24)n1	0.728 µM (active)	5.12 µM (inactive)	9.93 µM (inactive)	10.6 µM (inactive)	4.98 µM (inactive)	2.72 µM (inactive)	2.79 µM (inactive)	6.21 µM (inactive)	5.92 µM (inactive)	4.73 µM (inactive)	7.78 µM (inactive)	15.4 µM (inactive)	> 5 µM (inactive)	8.15 µM (inactive)	7.94 µM (inactive)	8.71 µM (inactive)	1.38 µM (inactive)	7.35 µM (inactive)	4.42 µM (inactive)
COc1c2ccsc2c(OC)c2ccsc12	> 100 µM (inactive)	> 100 µM (inactive)	> 100 µM (inactive)	> 100 µM (inactive)	26.1 µM (inactive)	0.478 µM (active)	> 100 µM (inactive)	> 100 µM (inactive)	> 100 µM (inactive)	42.6 µM (inactive)	> 100 µM (inactive)	71.4 µM (inactive)	> 100 µM (inactive)	> 100 µM (inactive)	61.8 µM (inactive)	> 100 µM (inactive)	> 100 µM (inactive)	> 100 µM (inactive)	95.7 µM (inactive)
NC(=O)NC(=O)c1ccc(NC(=O)CBr)cc1	1.54 µM (inactive)	1.4 µM (inactive)	2.03 µM (inactive)	1.42 µM (inactive)	2.18 µM (inactive)	0.679 µM (active)	0.278 µM (active)	2.56 µM (inactive)	1.86 µM (inactive)	1.81 µM (inactive)	1.48 µM (inactive)	2.31 µM (inactive)	4 µM (inactive)	11.8 µM (inactive)	13.6 µM (inactive)	1.94 µM (inactive)	2.44 µM (inactive)	1.73 µM (inactive)	0.984 µM (active)
CCC1=CCC23C(=O)C=CC(=O)C2(C1)C(=O)c1cccc(OC)c1C3=O (centres undefined)	2.73 µM (inactive)	17.6 µM (inactive)	13 µM (inactive)	10.8 µM (inactive)	18.4 µM (inactive)	13.1 µM (inactive)	11.9 µM (inactive)	20.2 µM (inactive)	15.8 µM (inactive)	15.6 µM (inactive)	14.9 µM (inactive)	20.2 µM (inactive)	20.9 µM (inactive)	16 µM (inactive)	24.3 µM (inactive)	16.3 µM (inactive)	16.9 µM (inactive)	20.3 µM (inactive)	23 µM (inactive)
O=C(N/N=C/c1ccc([N+](=O)[O-])o1)c1ccc(C(=O)N/N=C/c2ccc([N+](=O)[O-])o2)cc1	21.7 µM (inactive)	64.7 µM (inactive)	30.7 µM (inactive)	> 100 µM (inactive)	14.9 µM (inactive)	35.4 µM (inactive)	76.2 µM (inactive)	73.3 µM (inactive)	13.8 µM (inactive)	> 100 µM (inactive)	28.1 µM (inactive)	> 100 µM (inactive)	28.5 µM (inactive)	35.5 µM (inactive)	40.4 µM (inactive)	–	64.4 µM (inactive)	38.6 µM (inactive)	50.2 µM (inactive)
N=C(/C=C/c1ccc(-c2cn3cc(/C=C/C(=N)N4CCCC4)ccc3n2)cc1)N1CCCC1	> 100 µM (inactive)	> 100 µM (inactive)	> 100 µM (inactive)	> 100 µM (inactive)	47.3 µM (inactive)	> 100 µM (inactive)	85.5 µM (inactive)	> 100 µM (inactive)	> 100 µM (inactive)	> 100 µM (inactive)	> 100 µM (inactive)	56.5 µM (inactive)	60.3 µM (inactive)	> 100 µM (inactive)	> 100 µM (inactive)	78.7 µM (inactive)	50 µM (inactive)	–	50.2 µM (inactive)
O=C(/C=C1\Nc2ccccc2N\C1=C/C(=O)c1ccc(F)cc1)c1ccc(F)cc1	46.5 µM (inactive)	> 100 µM (inactive)	> 100 µM (inactive)	> 100 µM (inactive)	> 100 µM (inactive)	> 100 µM (inactive)	61.4 µM (inactive)	> 100 µM (inactive)	> 100 µM (inactive)	> 100 µM (inactive)	> 100 µM (inactive)	> 100 µM (inactive)	> 100 µM (inactive)	> 100 µM (inactive)	–	> 100 µM (inactive)	> 100 µM (inactive)	> 100 µM (inactive)	73.6 µM (inactive)

— ChEMBL document CHEMBL1201862, “PubChem BioAssay data set” (2004)
